Test results published in PubChem BioAssay AID248 (DTP/NCI, 2004).
“And” between values parts separate entries of the source, which are not always exact repeats. Identical values can stand only once. Inconclusive results and toxic doses are left out. No stated cut-off is given here; in the data, active means T/C of 150% or more; inactive means T/C below 125%.

Test system: L1210 leukemia ip in BDF1 mice, survival T/C
Assay: NCI In Vivo Anticancer Drug Screen. Data for tumor model L1210 Leukemia (intraperitoneal) in B6D2F1 (BDF1) mice
Settings: endpoint: mean survival time, higher = longer survival
In short: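 Survival endpoint. Drug-treated group vs vehicle group, expressed as T divided by C. Tumor passaged by transplantation.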

[1] = dose: 12.5 mg/kg/injection, schedule: Q01DX009 (ip), vehicle: saline with Tween-80
[2] = dose: 25.0 mg/kg/injection, schedule: Q01DX009 (ip), vehicle: saline with Tween-80
[3] = dose: 50.0 mg/kg/injection, schedule: Q01DX009 (ip), vehicle: saline with Tween-80
[4] = dose: 200.0 mg/kg/injection, schedule: Q01DX009 (ip), vehicle: saline with Tween-80
[5] = dose: 100.0 mg/kg/injection, schedule: Q01DX001 (ip), vehicle: Klucel (hydroxypropylcellulose) (HPC)
[6] = dose: 100.0 mg/kg/injection, schedule: Q04DX003 (ip), vehicle: Klucel (hydroxypropylcellulose) (HPC)
[7] = dose: 200.0 mg/kg/injection, schedule: Q01DX001 (ip), vehicle: Klucel (hydroxypropylcellulose) (HPC)
[8] = dose: 200.0 mg/kg/injection, schedule: Q04DX003 (ip), vehicle: Klucel (hydroxypropylcellulose) (HPC)
[9] = dose: 400.0 mg/kg/injection, schedule: Q01DX001 (ip), vehicle: Klucel (hydroxypropylcellulose) (HPC)
[10] = dose: 100.0 mg/kg/injection, schedule: Q01DX001 (ip), vehicle: saline
[11] = dose: 200.0 mg/kg/injection, schedule: Q01DX001 (ip), vehicle: saline
[12] = dose: 400.0 mg/kg/injection, schedule: Q01DX001 (ip), vehicle: saline

Measured: T/C

CC(=O)[C@@]1(O)CC[C@H]2[C@@H]3C[C@H](C)C4=CC(=O)C=C[C@]4(C)[C@@]3(F)[C@@H](O)C[C@@]21C
inactive: dose: 100.0 mg/kg/injection, schedule: Q01DX001 (sc), vehicle: steriod suspending solution 103 % of control | dose: 100.0 mg/kg/injection, schedule: Q01DX009 (sc), vehicle: steriod suspending solution 115 % of control | dose: 200.0 mg/kg/injection, schedule: Q01DX001 (sc), vehicle: steriod suspending solution 100 % of control | dose: 200.0 mg/kg/injection, schedule: Q01DX009 (sc), vehicle: steriod suspending solution 108 % of control | dose: 400.0 mg/kg/injection, schedule: Q01DX001 (sc), vehicle: steriod suspending solution 103 % of control | dose: 400.0 mg/kg/injection, schedule: Q01DX009 (sc), vehicle: steriod suspending solution 111 % of control | dose: 800.0 mg/kg/injection, schedule: Q01DX001 (sc), vehicle: steriod suspending solution 103 % of control | dose: 800.0 mg/kg/injection, schedule: Q01DX009 (sc), vehicle: steriod suspending solution 101 % of control

CC1(C)CCC(C)(C)C(=O)C1=O
inactive: dose: 10.0 mg/kg/injection, schedule: Q01DX009 (ip), vehicle: Klucel (hydroxypropylcellulose) (HPC) 105 % of control | dose: 10.0 mg/kg/injection, schedule: Q04DX003 (ip), vehicle: Klucel (hydroxypropylcellulose) (HPC) 97 % of control | dose: 20.0 mg/kg/injection, schedule: Q01DX001 (ip), vehicle: Klucel (hydroxypropylcellulose) (HPC) 103 % of control | dose: 20.0 mg/kg/injection, schedule: Q01DX009 (ip), vehicle: Klucel (hydroxypropylcellulose) (HPC) 89 % of control | dose: 20.0 mg/kg/injection, schedule: Q04DX003 (ip), vehicle: Klucel (hydroxypropylcellulose) (HPC) 102 % of control | dose: 40.0 mg/kg/injection, schedule: Q01DX001 (ip), vehicle: Klucel (hydroxypropylcellulose) (HPC) 102 % of control | dose: 40.0 mg/kg/injection, schedule: Q01DX009 (ip), vehicle: Klucel (hydroxypropylcellulose) (HPC) 89 % of control | dose: 40.0 mg/kg/injection, schedule: Q04DX003 (ip), vehicle: Klucel (hydroxypropylcellulose) (HPC) 100 % of control

Nc1cc(C(=O)Nc2ccc(S(=O)(=O)O)cc2)ccc1C(=O)Nc1ccc(S(=O)(=O)O)cc1
inactive: dose: 31.0 mg/kg/injection, schedule: Q01DX Z (ip), vehicle: water 87 % of control | dose: 62.5 mg/kg/injection, schedule: Q01DX Z (ip), vehicle: water 100 % of control | dose: 125.0 mg/kg/injection, schedule: Q01DX Z (ip), vehicle: water 97 % of control | dose: 250.0 mg/kg/injection, schedule: Q01DX Z (ip), vehicle: water 95 % of control | dose: 500.0 mg/kg/injection, schedule: Q01DX Z (ip), vehicle: water 97 % of control

O=C(O)C/C(=C/c1ccc2c(c1)OCO2)C(=O)O
inactive: dose: 100.0 mg/kg/injection, schedule: Q01DX009 (sc), vehicle: olive oil, sesame oil, peanut oil 102 % of control | dose: 100.0 mg/kg/injection, schedule: Q04DX003 (sc), vehicle: olive oil, sesame oil, peanut oil 106 % of control | dose: 200.0 mg/kg/injection, schedule: Q01DX009 (sc), vehicle: olive oil, sesame oil, peanut oil 100 % of control | dose: 200.0 mg/kg/injection, schedule: Q04DX003 (sc), vehicle: olive oil, sesame oil, peanut oil 106 % of control | dose: 400.0 mg/kg/injection, schedule: Q01DX009 (sc), vehicle: olive oil, sesame oil, peanut oil 98 % of control | dose: 400.0 mg/kg/injection, schedule: Q04DX003 (sc), vehicle: olive oil, sesame oil, peanut oil 101 % of control

CC(O)(C(=O)O)c1ccc(Cl)c(Cl)c1 (stereo not given)
inactive: [1] 93 % of control | [2] 93 % of control | [3] 89 % of control | [4] 100 % of control

C1CN=C(C2=NCCCN2)NC1
inactive: dose: 100.0 mg/kg/injection, schedule: Q01DX009 (ip), vehicle: saline 107 % of control and 101 % of control | dose: 100.0 mg/kg/injection, schedule: Q04DX003 (ip), vehicle: saline 98 % of control | dose: 200.0 mg/kg/injection, schedule: Q01DX009 (ip), vehicle: saline 98 % of control and 101 % of control | dose: 200.0 mg/kg/injection, schedule: Q04DX003 (ip), vehicle: saline 98 % of control | dose: 400.0 mg/kg/injection, schedule: Q01DX009 (ip), vehicle: saline 92 % of control and 102 % of control | dose: 400.0 mg/kg/injection, schedule: Q04DX003 (ip), vehicle: saline 102 % of control

O=[N+]([O-])c1ccc2cccnc2c1
inactive: dose: 75.0 mg/kg/injection, schedule: Q01DX001 (ip), vehicle: carboxymethylcellulose (CMC) 106 % of control | dose: 150.0 mg/kg/injection, schedule: Q01DX001 (ip), vehicle: carboxymethylcellulose (CMC) 104 % of control | dose: 300.0 mg/kg/injection, schedule: Q01DX001 (ip), vehicle: carboxymethylcellulose (CMC) 101 % of control

N#CC(C#N)C1c2ccccc2Nc2ccccc21
inactive: [1] 89 % of control | [2] 89 % of control | [3] 98 % of control and 89 % of control

CN(C)c1ccc2c(c1)/C(=N/O)c1ccccc1-2
inactive: dose: 100.0 mg/kg/injection, schedule: Q01DX001 (ip), vehicle: carboxymethylcellulose (CMC) 103 % of control | dose: 200.0 mg/kg/injection, schedule: Q01DX001 (ip), vehicle: carboxymethylcellulose (CMC) 105 % of control | dose: 400.0 mg/kg/injection, schedule: Q01DX001 (ip), vehicle: carboxymethylcellulose (CMC) 100 % of control

O=c1[nH]nc2ccccn12
inactive: [5] 96 % of control | [6] 101 % of control | [7] 102 % of control | [8] 101 % of control | [9] 96 % of control | dose: 400.0 mg/kg/injection, schedule: Q04DX003 (ip), vehicle: Klucel (hydroxypropylcellulose) (HPC) 95 % of control

O=C(CCCCl)Oc1ccccc1
inactive: dose: 100.0 mg/kg/injection, schedule: Q01DX009 (ip), vehicle: saline with Tween-80 103 % of control | [4] 98 % of control

CCCCO.CCCCO.Cl.[O]=[V]
inactive: dose: 4.0 mg/kg/injection, schedule: Q01DX015 (ip), vehicle: other 97 % of control | dose: 8.0 mg/kg/injection, schedule: Q01DX015 (ip), vehicle: other 97 % of control | dose: 16.0 mg/kg/injection, schedule: Q01DX015 (ip), vehicle: other 96 % of control | dose: 32.0 mg/kg/injection, schedule: Q01DX015 (ip), vehicle: other 108 % of control

O=c1c2ccccc2n2nnc3cccc1c32
inactive: [5] 97 % of control and 88 % of control | [6] 91 % of control | [7] 87 % of control | [8] 95 % of control | [9] 92 % of control

O=C(O)C1c2ccccc2-c2ccccc21
inactive: [10] 113 % of control | [11] 91 % of control | [12] 101 % of control

Cc1ccccc1/C=N/NC(=O)c1cccc2ccccc12
inactive: [10] 89 % of control | [11] 100 % of control

CCOC(=O)c1[nH]c2c(OCC)nc(OCC)nc2c1Br
inactive: dose: 50.0 mg/kg/injection, schedule: Q01DX001 (ip), vehicle: saline 106 % of control | [10] 112 % of control | [11] 104 % of control | [12] 95 % of control

Cc1ccc(C)c(N2CCN(c3ccncc3N)CC2)c1
inactive: dose: 75.0 mg/kg/injection, schedule: Q01DX001 (ip), vehicle: saline with Tween-80 98 % of control | dose: 75.0 mg/kg/injection, schedule: Q01DX009 (ip), vehicle: saline with Tween-80 95 % of control | dose: 150.0 mg/kg/injection, schedule: Q01DX001 (ip), vehicle: saline with Tween-80 93 % of control | dose: 150.0 mg/kg/injection, schedule: Q01DX009 (ip), vehicle: saline with Tween-80 102 % of control | dose: 300.0 mg/kg/injection, schedule: Q01DX001 (ip), vehicle: saline with Tween-80 101 % of control

CN(CCO)C(=O)C1C(c2ccccc2)C1c1ccccc1 (stereo not given)
inactive: dose: 100.0 mg/kg/injection, schedule: Q04DX002 (ip), vehicle: Klucel (hydroxypropylcellulose) (HPC) 100 % of control | dose: 200.0 mg/kg/injection, schedule: Q04DX002 (ip), vehicle: Klucel (hydroxypropylcellulose) (HPC) 94 % of control | dose: 400.0 mg/kg/injection, schedule: Q04DX002 (ip), vehicle: Klucel (hydroxypropylcellulose) (HPC) 97 % of control

O=CNc1ccc(Br)cc1
inactive: dose: 50.0 mg/kg/injection, schedule: Q04DX003 (ip), vehicle: Klucel (hydroxypropylcellulose) (HPC) 97 % of control | dose: 100.0 mg/kg/injection, schedule: Q01DX009 (ip), vehicle: Klucel (hydroxypropylcellulose) (HPC) 98 % of control | [6] 97 % of control | dose: 200.0 mg/kg/injection, schedule: Q01DX009 (ip), vehicle: Klucel (hydroxypropylcellulose) (HPC) 98 % of control | [8] 100 % of control
